Measurements taken from patent US8975259B2, “Compositions and methods for inhibiting G protein signaling” (University of Rochester, priority 2007, dated 2015).
Where two headings read alike, the source gives them in different places.

Biological target: Gβ1γ2 (UniProt P54311+P63212)
Experiment: Competition phage ELISA: inhibition of SIGK-phage binding to immobilized biotinylated Gβ1γ2
Design: made in house; host or cells: Sf9 insect cells (baculovirus; co-expressed with BirA and (His)6-Gαi1, from which βγ was eluted); species or system rat
Conditions: for binding to the G protein β subunit: result in words
Procedure: Phage ELISA assays used to assess peptide binding to wild-type and mutant b-βγ were performed according to standard methods (Smrcka and Scott (2002) Methods Enzymol. 344:557-76). Briefly, 1 μg streptavidin was immobilized in the well of a […] overnight at 4° C. The wells were blocked with 100 μL of 2% bovine serum albumin (BSA) in Tris-buffered saline (TBS) for 1 hour at 4° C. followed by three washes of IX TBS/0.5% TWEEN®. […] The wells were washed, followed by the addition of IxIO^6 to IxIO^10 phage particles and incubated at 4° C. for 3 hours. The wells were then washed six times with TBS/0.5% TWEEN® followed by addition of 40 μL of 1:5000 dilution of anti-M13 antibody (Pharmacia, Uppsala, Sweden) and incubated at room temperature for 1 hour. The wells were washed, followed by the addition of 40 μL of (2,2′-Azino-bis (3-ethylbenzthiazoline)-6-sulfonic acid (ABTS) and the colorimetric reaction was monitored at 405 nm. Nonspecific binding was subtracted for each reading.
A phage ELISA assay was used to determine whether small molecules identified in the computational screen could interact with the Gβy protein interaction surface. […] The screen was based on a reduction in the optical density (OD) of wells containing Gβγ subunits and phage. […] Three background wells contained no βy subunits.
As disclosed herein, biotinylated Gβy subunits were immobilized on the surface of a 96-well plate coated with streptavidin, phage displaying Gβγ-binding peptides were subsequently added and binding in the presence and absence of test compounds detected with an anti-phage antibody.
The phage ELISA assay was used to rapidly screen the ability of compounds to bind to the protein interaction “hot spot” based on the method of Scott et. al (Scott et al., 2001). This assay is performed in the presence of detergent (0.5% Tween) to eliminate non-specific compound aggregation artifacts.
Compounds/DMSO and 0.1×10^10 phage were added simultaneously and subsequently incubated for 1 h at room temperature. Plates were then washed with 1× Tris-buffered saline/0.5% Tween 20 and incubated with anti-M13, HRP-conjugated antibody (Amersham, Chalfont St. Giles, Buckinghamshire, UK). Phage binding was determined by monitoring A405 upon addition of 2,2′-azino-bis(3-ethylbenzothiazoline-6-sulfonic acid) (Sigma Aldrich).

[1] = kind of constant not stated, read-out: binding to the G protein β subunit

`CNc1ccc(Nc2cc(S(=O)(=O)O)c(N)c3c2C(=O)c2ccccc2C3=O)cc1` was tested, and the IC50 (Table 2, read-out: Elisa IC50) was 59000 nM.
With `CC1C2C=CC1C(c1c3ccc(=O)c(O)c-3oc3c(O)c(O)ccc13)C2C(=O)O` (stereo not drawn) the IC50 (Table 6) was 700 nM.
With `O=C(O)C1CC23C(Cl)C(Cl)C(Cl)C(Cl)C2(CC1c1c2ccc(=O)c(O)c-2oc2c(O)c(O)ccc12)C3(Cl)Cl` (stereo not drawn) the IC50 (Table 6) was 200 nM.
`O=C(O)c1ccccc1-c1c2ccc(=O)c(O)c-2oc2c(O)c(O)ccc12` was tested, and the IC50 (Table 6) was 200 nM.
`O=C1C=CC2C(=C1O)Oc1c(ccc(O)c1O)/C2=C\C=C(O)O` (stereo not drawn) gave an IC50 (Table 6) of 200 nM.
Compound `Cc1cc(N)c2cc(CC(=O)C(C)(C)C(=O)Nc3ccc4nc(C)cc(N)c4c3)ccc2n1` has an IC50 (Table 7, read-out: ELISA IC50) of 74000 nM.
Work on `Ic1ccc2c(c1)N(c1ccccc1)c1cc(Nc3ccc4c(c3)N(c3ccccc3)c3cc(I)ccc3N4)ccc1N2` yielded an IC50 (Table 7, read-out: ELISA IC50) of 2000 nM.
Work on “7-methyl-3-(4,5,6-trihydroxy-3-oxo-3H-xanthen-9-yl)bicyclo[2.2.1]hept-5-ene-2-carboxylic acid” yielded an IC50 (kind of constant not stated, read-out: binding to the protein interaction site of the β subunit of a G protein) of 700 nM.
In the case of `Cc1c2cc(O)c(=O)cc-2oc2cc(O)c(O)cc12` [2,6,7-trihydroxy-9-methyl-3H-xanthen-3-one], the “binding to the G protein β subunit” value is reported as “did not provide a compound that exhibited binding”.
For `O=C(O)CCc1c2ccc(=O)c(O)c-2oc2c(O)c(O)ccc12` [3-(4,5,6-trihydroxy-3-oxo-3H-xanthen-9-ylpropanoic acid], the IC50 [1] was 2500 nM.
In the case of `O=C(O)CCc1c2ccc(=O)cc-2oc2cc(O)ccc12` [3-(6-hydroxy-3-oxo-3H-xanthen-9-yl)propionic acid], the “binding to the G protein β subunit” value is reported as “Neither of these compounds showed any binding”.
`O=C(O)C1C2C=CC(C2)C1c1c2ccc(=O)cc-2oc2cc(O)ccc12` (stereo not drawn) [3-(6-hydroxy-3-oxo-3H-xanthen-9yl)bicyclo[2.2.1]hept-5-ene-2-carboxylic acid] was tested, and the IC50 [1] was 14000 nM.
